Experimental data published in ChEMBL document CHEMBL4613237, “A novel phytosterol isolated from Datura inoxia, RinoxiaB is a potential cure colon cancer agent by targeting BAX/Bcl2 pathway” (Bioorg Med Chem, 2020).
Active and inactive are the calls of the source. No cut-off for these calls is given here.

Legend:
HCT-15 [1] = assay: Induction of apoptosis in human HCT15 cells assessed as increase in cytochrome c protein expression at 4 to 10 uM after 24 hrs by Western blot analysis; format: functional, cell-based
HCT-15 [2] = assay: Induction of apoptosis in human HCT15 cells assessed as increase in bax protein expression at 4 to 10 uM after 24 hrs by Western blot analysis; format: functional, cell-based
HCT-15 [3] = assay: Antiproliferative activity against human HCT15 cells assessed as reduction in cell viability after 24 hrs by MTT assay; format: functional, cell-based
HCT-15 [4] = assay: Induction of DNA damage in human HCT15 cells assessed as olive tail moment at 4 uM by neutral comet assay (reference value: 0.19); format: functional
HCT-15 [5] = assay: Induction of apoptosis in human HCT15 cells assessed as upregulation of p53 protein expression after 24 hrs by Western blot analysis; format: functional, cell-based
HCT-15 [6] = assay: Induction of DNA damage in human HCT15 cells assessed as tail length at 4 uM by neutral comet assay (reference value: 4 pixel); format: functional
HCT-15 [7] = assay: Induction of DNA damage in human HCT15 cells assessed as tail length at 10 uM by neutral comet assay (reference value: 4 pixel); format: functional
HCT-15 [8] = assay: Induction of morphological changes in human HCT15 cells assessed as formation of spherical bodies at 4 to 10 uM after 24 hrs by inverted light microscopic analysis; format: functional, cell-based
HCT-15 [9] = assay: Downregulation of cyclin B1 expression in human HCT15 cells at 4 to 10 uM after 24 hrs by Western blot anlaysis; format: functional, cell-based
HCT-15 [10] = assay: Induction of cell cycle arrest in human HCT15 cells assessed as accumulation of cells at G2/M phase at 4 uM after 24 hrs by propidium iodide staining based flow cytometry (reference value: 13.77%); format: functional
HCT-15 [11] = assay: Induction of DNA damage in human HCT15 cells assessed as olive tail moment at 10 uM by neutral comet assay (reference value: 0.19); format: functional
HCT-15 [12] = assay: Induction of DNA damage in human HCT15 cells assessed as head DNA at 10 uM by neutral comet assay relative to control (reference value: 99.27%); format: functional
HCT-15 [13] = assay: Induction of apoptosis in human HCT15 cells assessed as increase in caspase-3 protein expression at 4 to 10 uM after 24 hrs by Western blot analysis; format: functional, cell-based
HCT-15 [14] = assay: Induction of apoptosis in human HCT15 cells assessed as viable cells at 4 uM after 24 hrs by annexin V-FITC and propidium iodide staining based flow cytometry (reference value: 99.93%); format: functional; details: HCT-15, 24 h, read-out: Activity
HCT-15 [15] = assay: Induction of cell cycle arrest in human HCT15 cells assessed as accumulation of cells at G2/M phase at 10 uM after 24 hrs by propidium iodide staining based flow cytometry (reference value: 13.77%); format: functional
HCT-15 [16] = assay: Induction of apoptosis in human HCT15 cells assessed as necrotic cells at 4 uM after 24 hrs by annexin V-FITC and propidium iodide staining based flow cytometry (reference value: 0.07%); format: functional
HCT-15 [17] = assay: Induction of morphological changes in human HCT15 cells assessed as lack of colony forming ability at 4 to 10 uM after 24 hrs by inverted light microscopic analysis; format: functional, cell-based
HCT-15 [18] = assay: Induction of DNA damage in human HCT15 cells assessed as comet length at 10 uM by neutral comet assay (reference value: 57 pixel); format: functional
HCT-15 [19] = assay: Induction of apoptosis in human HCT15 cells assessed as reduction in bcl-2 protein expression at 4 to 10 uM after 24 hrs by Western blot analysis; format: functional, cell-based
HCT-15 [20] = assay: Induction of DNA damage in human HCT15 cells assessed as tail moment at 10 uM by neutral comet assay (reference value: 0.02); format: functional
HCT-15 [21] = assay: Induction of nuclear morphological changes in human HCT15 cells assessed as increase in propidium iodide positive cells at 4 to 10 uM after 24 hrs by PI-staining based fluorescence microscopic analysis; format: functional, cell-based
HCT-15 [22] = assay: Induction of cell cycle arrest in human HCT15 cells assessed as accumulation of cells at G0/G1 phase at 10 uM after 24 hrs by propidium iodide staining based flow cytometry (reference value: 77.48%); format: functional
HCT-15 [23] = assay: Induction of morphological changes in human HCT15 cells assessed as cell shrinkage after 24 hrs by inverted light microscopic analysis; format: functional, cell-based
HCT-15 [24] = assay: Induction of DNA damage in human HCT15 cells assessed as head length at 4 uM by neutral comet assay (reference value: 53 pixel); format: functional
HCT-15 [25] = assay: Induction of apoptosis in human HCT15 cells assessed as late apoptotic cells at 10 uM after 24 hrs by annexin V-FITC and propidium iodide staining based flow cytometry (reference value: 0%); format: functional
HCT-15 [26] = assay: Induction of apoptosis in human HCT15 cells assessed as upregulation of p21 protein expression after 24 hrs by Western blot analysis; format: functional, cell-based
HCT-15 [27] = assay: Induction of apoptosis in human HCT15 cells assessed as viable cells at 10 uM after 24 hrs by annexin V-FITC and propidium iodide staining based flow cytometry (reference value: 99.93%); format: functional; details: HCT-15, 24 h, read-out: Activity
HCT-15 [28] = assay: Induction of DNA damage in human HCT15 cells assessed as head DNA at 4 uM by neutral comet assay relative to control (reference value: 99.27%); format: functional
HCT-15 [29] = assay: Induction of DNA damage in human HCT15 cells assessed as comet length at 4 uM by neutral comet assay (reference value: 57 pixel); format: functional
HCT-15 [30] = assay: Induction of DNA damage in human HCT15 cells assessed as tail moment at 4 uM by neutral comet assay (reference value: 0.02); format: functional
HCT-15 [31] = assay: Induction of apoptosis in human HCT15 cells assessed as late apoptotic cells at 4 uM after 24 hrs by annexin V-FITC and propidium iodide staining based flow cytometry (reference value: 0%); format: functional
HCT-15 [32] = assay: Induction of apoptosis in human HCT15 cells assessed as necrotic cells at 10 uM after 24 hrs by annexin V-FITC and propidium iodide staining based flow cytometry (reference value: 0.07%); format: functional
HCT-15 [33] = assay: Induction of apoptosis in human HCT15 cells assessed as increase in caspase-9 protein expression at 4 to 10 uM after 24 hrs by Western blot analysis; format: functional, cell-based
HCT-15 [34] = assay: Induction of apoptosis in human HCT15 cells assessed as early apoptotic cells at 4 uM after 24 hrs by annexin V-FITC and propidium iodide staining based flow cytometry (reference value: 0%); format: functional
HCT-15 [35] = assay: Induction of cell cycle arrest in human HCT15 cells assessed as accumulation of cells at S phase at 10 uM after 24 hrs by propidium iodide staining based flow cytometry (reference value: 8.73%); format: functional
HCT-15 [36] = assay: Induction of DNA damage in human HCT15 cells assessed as tail DNA at 4 uM by neutral comet assay relative to control (reference value: 0.72%); format: functional
HCT-15 [37] = assay: Induction of morphological changes in human HCT15 cells assessed as membrane blebbing at 4 to 10 uM after 24 hrs by inverted light microscopic analysis; format: functional, cell-based
HCT-15 [38] = assay: Induction of cell cycle arrest in human HCT15 cells assessed as accumulation of cells at G0/G1 phase at 4 uM after 24 hrs by propidium iodide staining based flow cytometry (reference value: 77.48%); format: functional
HCT-15 [39] = assay: Downregulation of cyclin D1 expression in human HCT15 cells at 4 to 10 uM after 24 hrs by Western blot anlaysis; format: functional, cell-based
HCT-15 [40] = assay: Induction of apoptosis in human HCT15 cells assessed as early apoptotic cells at 10 uM after 24 hrs by annexin V-FITC and propidium iodide staining based flow cytometry (reference value: 0%); format: functional
HCT-15 [41] = assay: Induction of DNA damage in human HCT15 cells assessed as head length at 10 uM by neutral comet assay (reference value: 53 pixel); format: functional
HCT-15 [42] = assay: Induction of cell cycle arrest in human HCT15 cells assessed as accumulation of cells at S phase at 4 uM after 24 hrs by propidium iodide staining based flow cytometry (reference value: 8.73%); format: functional
HCT-15 [43] = assay: Antiproliferative activity against human HCT15 cells at 4 uM after 24 hrs by MTT assay relative to control; format: functional; details: HCT-15, 24 h
HCT-15 [44] = assay: Induction of DNA damage in human HCT15 cells assessed as tail DNA at 10 uM by neutral comet assay relative to control (reference value: 0.72%); format: functional

## C[C@H]1C(=O)O[C@H]2C[C@]1(C)OC[C@H]2[C@H]1CC[C@H]2[C@@H]3CC=C4CC=CC(=O)[C@]4(C)[C@H]3CC[C@]12C
HCT-15 [1]
  Activity: Active
HCT-15 [2]
  Activity: Active
HCT-15 [3]
  inhibition: Dose-dependent effect
HCT-15 [3]; HCT-15, 24 h
  IC50: 4 µM
HCT-15 [4]
  Activity: 5.56
HCT-15 [5]
  Activity: Dose-dependent effect
HCT-15 [6]
  Activity: 12 pixel
HCT-15 [7]
  Activity: 17 pixel
HCT-15 [8]
  Activity: Active
HCT-15 [9]
  inhibition: Active
HCT-15 [10]
  Activity: 19.67%
HCT-15 [11]
  Activity: 8.56
HCT-15 [12]
  Activity: 34.54%
HCT-15 [13]
  Activity: Active
HCT-15 [14]
  viability at 4 µM: 21.9%
HCT-15 [15]
  Activity: 21.57%
HCT-15 [16]
  Activity: 2.1%
HCT-15 [17]
  Activity: Active
HCT-15 [18]
  Activity: 36 pixel
HCT-15 [19]
  Activity: Active
HCT-15 [20]
  Activity: 11.12
HCT-15 [21]
  Activity: Active
HCT-15 [22]
  Activity: 61.24%
HCT-15 [23]
  Activity: Dose-dependent effect
HCT-15 [24]
  Activity: 23 pixel
HCT-15 [25]
  Activity: 63.26%
HCT-15 [26]
  Activity: Dose-dependent effect
HCT-15 [27]
  viability at 10 µM: 14.7%
HCT-15 [28]
  Activity: 54.72%
HCT-15 [29]
  Activity: 35 pixel
HCT-15 [30]
  Activity: 5.43
HCT-15 [31]
  Activity: 58.17%
HCT-15 [32]
  Activity: 2.57%
HCT-15 [33]
  Activity: Active
HCT-15 [34]
  Activity: 17.79%
HCT-15 [35]
  Activity: 16.46%
HCT-15 [36]
  Activity: 45.27%
HCT-15 [37]
  Activity: Active
HCT-15 [38]
  Activity: 66.97%
HCT-15 [39]
  inhibition: Active
HCT-15 [40]
  Activity: 19.48%
HCT-15 [41]
  Activity: 19 pixel
HCT-15 [42]
  Activity: 13.34%
HCT-15 [43]
  inhibition at 4 µM: 50.7%
HCT-15 [44]
  Activity: 65.45%
